# In patent US10328092B2, “Methods and compositions for treatment of drug addiction” (The Royal Institution for the Advancement of Learning / …, priority 2015, dated 2019):
# Counter-ions that a name gives are not always drawn.
# Experiments:
# TNFα = TNFα mRNA / protein in ventral striatum (NAc) after in vivo treatment; set-up: species or system mouse; details: L741,626 i.p. 3 mg/kg 15 min before daily cocaine, 5 days; adult mice
# Experimental: To determine the effect of in vivo cocaine exposure on TNFα levels in the ventral striatum, TNFα mRNA and protein levels were measured in mice given intraperitoneal injections of saline or cocaine. […] To understand the impact of TNFα on synaptic function in the NAc, AMPA/NMDA ratios were measured at glutamatergic synapses on MSNs in the NAc core. Alteration in NAc core AMPA receptors are involved in the expression of behavioral sensitization to psychostimulants (Kalives, 2009).
# Mice (8-10 weeks) were perfused and their brains submerged overnight in 4% PFA, cryoprotected with 30% sucrose, and cut in 30 μm thick coronal slices using a cryostat. The sections were incubated for 4 hours with blocking solution (2% normal goat serum, 3% BSA, 0.2% Triton X-100 in PBS) before incubation overnight at 4 C with primary antibodies in blocking solution (rabbit anti-Iba1 antibody [019-19741, Wako; 1:800; RRID: AB_2566825], chicken anti-GFAP antibody [AB5541, Millipore; 1:500; RRID: AB_177521], rabbit anti-NeuN [ab104225, Abcam, 1:400; RRID: AB_10711153], and rabbit anti-TNFα antibody [ab6671, Abcam, 1:100; RRID: AB_305641] or mouse anti-TNFα antibody [ab1793, Abcam, 1:100; RRID: AB_302615]). Sections were washed (2×15 min with PBST [0.05% Tween20] and 1×15 min with PBS at RT) and incubated for 2 hrs at room temperature in secondary antibodies (anti-rabbit, anti-chicken, or anti-mouse IgG-conjugated Alexa Fluorochrome [Invitrogen; 1:400]). Sections were washed and briefly (<30 seconds) incubated with Hoechst 33342 [H1399, Molecular Probes; 1:10,000] in PBS. The stained sections were imaged using an Olympus FluoView FV1000 confocal microscope with Fluoview imaging software (FV10-ASW). Images of the ventral striatum (nucleus accumbens core and shell) were acquired with a 40× or 60× objective and stacks of 25-30 optical sections (1 μm per section) of depth were Z-projected into a single window and analysed using ImageJ software (NIH).
# The number of Iba1+ microglia were manually counted from 212×212 μm (60× objectives) or 317×317 μm (40× objectives) images. TNFα intensity was measured using the mean grey value of the entire image while Iba1 intensity measurements were obtained using a thresholded area to highlight only the microglia. Cell body area (μm^2) was measured based on Iba1 staining and using the freehand selection tool. Additional analysis of microglia morphology in saline and cocaine treated mice was done using IMARIS software (Bitplane). […] The following parameters were analyzed for 40 microglia per group: total process length (sum of length of all processes), total process volume, process diameter and number of branch points and terminals. […]
# After 40 cycles, the Ct values were determined.
# D1-MSNs in the NAc core [1] = experiment: AMPA/NMDA ratio on D1-MSNs after in vivo treatment; set-up: species or system mouse; details: L741,626 i.p. 3 mg/kg co-administered with daily cocaine over 5 days
# Experimental: (§1) Repeated non-contingent administration of cocaine results in lower AMPA/NMDA ratios of excitatory inputs onto the NAc specifically on the D1-MSN subtype (Kim et al., 2011; Pascoli et al., 2012). To test whether the decrease in AMPA/NMDA ratios after repeated drug administration is due to the increase in TNFα expression, the AMPA/NMDA ratio was evaluated on D1 and D2 MSNs in the NAc core following cocaine or saline administration in WT and TNFα^−/− mice. […] This is consistent with the exocytosis of AMPARs observed with direct stimulation of D1Rs on MSNs (Mangiavacchi and Wolf, 2004). […] To test the hypothesis that potentiated D1-MSNs are more sensitive to TNFα, TNFα mice were treated with a single injection of cocaine and the effect of a low level of TNFα (10 ng/ml) on AMPA/NMDA ratios was evaluated. […] This treatment had no effect on D2-MSNs (FIG. 9B). To test whether cocaine-induced TNFα signaling would occlude further TNFα synaptic depression, wildtype animals were treated with cocaine for 5 days, and then treated striatel slices ex-vivo with TNFα (100 ng/ml). The AMPA/NMDA ratio on D1-MSNs (already reduced compared to saline treated animals; FIG. 5E) was not further reduced by treatment with TNFα (FIG. 5G).
# Because depotentiation of MSNs reduced cocaine-induced behavioural sensitization (Pascoli et al., 2012), it was tested whether re-activation of microglia would depress NAc synapses and suppress sensitization. To do this, monophosphoryl lipid A (MPLA), a detoxified variant of LPS, was used (Casella and Mitchell, 2008). MPLA acts as a weak TLR4 agonist that is at least 100-fold less pyrogenic than LPS (Cluff, 2010) and is used in humans as an adjuvant for several vaccine formulations. […] It was verified that MPLA activates microglia in the striatum, by injecting 10 μg MPLA IP after 10 days withdrawal from cocaine. […] This is consistent with previous observations that MPLA acts as a microglia modulator (Michaud et al., 2013). […] It was next tested if MPLA treatment would depress synaptic strength in the NAc core. After 10 days of withdrawal, animals were injected with MPLA and evaluated 24 hours later for AMPA/NMDA ratios on D1-MSNs.
# 240 μm thick coronal slices containing the nucleus accumbens were prepared from brains of 8-9 week-old mice (with fluorescent D1-MSNs). After a 1 h recovery period, slices were placed in a submersion-type recording chamber and perfused (1.5-2 ml/min) at 30° C. with a bicarbonate-buffered artificial CSF saturated with 95% O2/5% CO2 and containing (in mM): 119 NaCl, 2.5 KCl, 1 NaH2PO4, 1.3 MgCl2, 2.5 CaCl2, 26.2 NaHCO3, 11 glucose, and 0.05 picrotoxin. Whole-cell voltage-clamp recordings from medium spiny neurons in the nucleus accumbens core were obtained under visual control using infrared-differential interference contrast microscopy. Whole-cell electrodes (2-4 MΩ) were filled with internal solution containing the following (in mM): 120 CsMeSO3, 15 CsCl, 8 NaCl, 0.2 EGTA, 10 HEPES, 2 Mg-ATP, 0.3 Na-GTP, 10 tetraethylammonium, and 5 QX-314 [5-N-(2,6-dimethylphenylcarbamoylmethyl)triethylammonium bromide] (308-310 mOsm). pH was adjusted to 7.3 with CsOH. Cells with series resistance above 25 MΩ or a 20% change over time were excluded. Synaptic currents were evoked using stainless-steel bipolar stimulating electrodes placed 100-150 μm rostral to the recorded neurons. EPSCs were acquired with an Axopatch 200B (Molecular Devices), filtered at 2 kHz, and digitized at 10 kHz. Acquisition and analysis was performed using pCLAMP 10.2 (Molecular Devices). To calculate AMPA/NMDA ratios, evoked synaptic responses were collected at −70 mV to measure AMPAR-mediated EPSCs and at +40 mV to measure NMDAR-mediated EPSCs. Typically, 20 responses were averaged to generate an average response. The peak AMPA response was used to calculate the AMPAR component and the amplitude at 40 ms post the AMPAR peak response was used to calculate the slower NMDA component at +40 mV to calculate the AMPA/NMDA ratio.
# [2] = system: primary rat microglia cultures; experiment: TNFα mRNA in primary rat microglia cultures; format: cell-based; details: agonist 1 μm, 3 h
# Experimental: For tissue, total RNA from the ventral striatum was extracted and isolated by RNAqueous-4PCR total RNA isolation kit (Ambion, AM1914), according to manufacturer's instructions. For microglia and astrocyte cultures, total RNA was isolated by RNeasy kit (Qiagen, 74136). For all sample types, 0.5 μg of total RNA was used for cDNA synthesis with Quantitect Reverse Transcription Kit (Qiagen, 205313), and quantitative RT-PCR was performed with Fast SYBR-Green Master Mix (Applied Biosystems) detected by StepOne Plus RealTime PCR system (Applied Biosystems). The sequences of qPCR primers used for mRNA quantification in this study were obtained from Integrated DNA Technologies, and are as follows: mouse TNFα forward, […] (SEQ ID NO: 1) [200 nM]; mouse TNFα reverse, […] (SEQ ID NO: 2) [200 nM]; mouse GAPDH forward, […] (SEQ ID NO: 3) [300 nM]; mouse GAPDH reverse, […] (SEQ ID NO: 4) [300 nM]; rat TNFα forward, […] (SEQ ID NO: 1) [600 nM]; rat TNFα reverse, […] (SEQ ID NO: 5) [600 nM]; rat cyclophilin forward, […] (SEQ ID NO: 6) [500 nM]; rat cyclophilin reverse, […] (SEQ ID NO: 7) [500 nM]. After 40 cycles, the Ct values were determined. To normalize the samples, ΔCt between TNFα and GADPH or cyclophilin Ct values was calculated. The x-fold difference in expression between the different treatments was then determined by subtraction of the ΔCt values and termed ΔΔCt. Finally, the total change was calculated as 2-ΔΔct and the relative amount compared with control samples was deducted.
# Mixed microglia-astrocyte primary cultures were prepared from the striatum of postnatal rats (day 0), essentially as described (Beattie et al., 2002). Briefly, tissue was dissociated by […], and cells were seeded in glia media (MEM containing 5% FBS, 1.5% high sucrose MEM and 0.1% glutamax) on culture flasks (Corning) coated with poly-D lysine (Sigma) and placed in a humidified incubator at 37 C with 5% CO2. Neurons were removed by mechanical disruption and the medium was changed at day 1, and every 5-7 days after. […]
# D1-MSNs in the NAc core [3] = experiment: AMPA/NMDA ratio, acute NAc slices treated ex-vivo with TNFα, D1-MSNs; format: cell-based, mouse; details: for mean AMPA/NMDA ratio, D1 MSNs: NAc core
# Experimental: (§2) It has been previously shown that TNFα drives internalization of AMPARs on MSNs in the dorsal striatum (Lewitus et al., 2014). As repeated cocaine administration primarily affects direct-pathway MSNs, specific subpopulations of MSNs in the NAc core were tested for their response to TNFα. Acute NAc slices were incubated with TNFα (10 ng/ml or 100 ng/ml) and whole-cell recording were made for Drd1a-td Tomato (D1) positive and negative (D2) MSNs. […] A low dose of TNFα (10 ng/ml) had no significant effect on either cell type.
# as §1
# . After a 1 h recovery period, slices were placed in a submersion-type recording chamber and perfused (1.5-2 ml/min) at 30° C. with a bicarbonate-buffered artificial CSF saturated with 95% O2/5% CO2 and containing (in mM): 119 NaCl, 2.5 KCl, 1 NaH2PO4, 1.3 MgCl2, 2.5 CaCl2, 26.2 NaHCO3, 11 glucose, and 0.05 picrotoxin. Whole-cell voltage-clamp recordings from medium spiny neurons in the nucleus accumbens core were obtained under visual control using infrared-differential interference contrast microscopy. Whole-cell electrodes (2-4 MΩ) were filled with internal solution containing the following (in mM): 120 CsMeSO3, 15 CsCl, 8 NaCl, 0.2 EGTA, 10 HEPES, 2 Mg-ATP, 0.3 Na-GTP, 10 tetraethylammonium, and 5 QX-314 [5-N-(2,6-dimethylphenylcarbamoylmethyl)triethylammonium bromide] (308-310 mOsm). pH was adjusted to 7.3 with CsOH. Cells with series resistance above 25 MΩ or a 20% change over time were excluded. Synaptic currents were evoked using stainless-steel bipolar stimulating electrodes placed 100-150 μm rostral to the recorded neurons. […]
# D2-MSNs in the NAc core = experiment: AMPA/NMDA ratio, acute NAc slices treated ex-vivo with TNFα, D2-MSNs; format: cell-based, mouse; details: for mean AMPA/NMDA ratio, D2 MSNs: NAc core
# Experimental: as §2, §1
# . […] Synaptic currents were evoked using stainless-steel bipolar stimulating electrodes placed 100-150 μm rostral to the recorded neurons. […]
compound,measurement,setting,value
"OC1(c2ccc(Cl)cc2)CCN(Cc2c[nH]c3ccccc23)CC1 [L741,626]",TNFα mRNA in ventral striatum tissue,TNFα,significantly decreases
same,AMPA/NMDA ratio on D1-MSNs vs cocaine alone,D1-MSNs in the NAc core [1],increase
Oc1cc2c(cc1O)C(c1ccccc1)CNCC2 (centres unmarked) [SKF-38393],change in TNFα mRNA in primary rat microglia cultures,[2],had no effect
"CCCN[C@H]1CCc2nc(N)sc2C1 [pramipexole, pramipexole dihydrochloride]",change in TNFα mRNA in primary rat microglia cultures,[2],did not affect
Tumor necrosis factor alpha [TNFα],"mean AMPA/NMDA ratio, D1-MSNs","D1-MSNs in the NAc core [3]; TNFα−/− mice treated 24 hours prior with cocaine, 10 ng/ml TNFα ex-vivo",3.08±0.42
same,"mean AMPA/NMDA ratio, D1 MSNs",D1-MSNs in the NAc core [3]; slices treated with 10 ng/ml TNFα (printed D1(10 ug TNF)),3.1±0.52
same,"mean AMPA/NMDA ratio, D1 MSNs",D1-MSNs in the NAc core [3]; slices treated with 100 ng/ml TNFα (printed D1(100 ug TNF)),2.42±0.23
same,"mean AMPA/NMDA ratio, D1-MSNs","D1-MSNs in the NAc core [3]; wildtype mice after 5 daily cocaine injections, 100 ng/ml TNFα ex-vivo",4.06±0.46
same,effect on AMPA/NMDA ratios in D2-MSNs,"D2-MSNs in the NAc core; TNFα-KO mice, cocaine 24 hours prior, 10 ng/ml TNFα ex-vivo",had no effect
same,"mean AMPA/NMDA ratio, D2 MSNs",D2-MSNs in the NAc core; slices treated with 10 ng/ml TNFα (printed D2(10 ug TNF)),2.78±0.34
same,"mean AMPA/NMDA ratio, D2 MSNs",D2-MSNs in the NAc core; slices treated with 100 ng/ml TNFα (printed D2(100 ug TNF)),2.02±0.18
